Test results: ChEMBL document CHEMBL3868595, “Plazomicin is effective in a non-human primate pneumonic plague model” (Bioorg Med Chem, 2016)

What was measured:
[1] = Volume of distribution at steady state in African green monkey blood at 25 mg/kg administered as iv infusion twice daily for 7 consecutive days measured on day 1 by LC-MS/MS analysis; format: ADME, organism-based; conditions: chlorocebus aethiops, read-out: Vdss
[2] = tested on: Yersinia pestis; experiment: Antibacterial activity against Yersinia pestis Colorado 92 infected in African green monkey B6889 model assessed as bacterial burden in lung at 6.25 mg/kg, iv administered within 6 hrs post onset of sustained fever as 30 mins infusion for 5 days (reference value: 7.7 10^8CFU/g); format: functional, CO92
[3] = tested on: Yersinia pestis; experiment: Antibacterial activity against Yersinia pestis Colorado 92 infected in African green monkey B6861 model assessed as bacterial burden in spleen at 6.25 mg/kg, iv administered within 6 hrs post onset of sustained fever as 30 mins infusion for 5 days (reference value: 1.6 10^9CFU/g); format: functional, CO92
[4] = tested on: Yersinia pestis; experiment: Antibacterial activity against Yersinia pestis Colorado 92 infected in African green monkey B6889 model assessed as bacterial burden in liver at 6.25 mg/kg, iv administered within 6 hrs post onset of sustained fever as 30 mins infusion for 5 days (reference value: 5.2 10^8CFU/g); format: functional, CO92
[5] = tested on: Yersinia pestis; experiment: Antibacterial activity against Yersinia pestis Colorado 92 infected in African green monkey 8047 model assessed as bacterial burden in liver at 6.25 mg/kg, iv administered within 6 hrs post onset of sustained fever as 30 mins infusion for 10 days (reference value: 5.2 10^8CFU/g); format: functional, CO92
[6] = tested on: Yersinia pestis; experiment: Antibacterial activity against Yersinia pestis Colorado 92 infected in African green monkey B6469 model assessed as bacterial burden in kidney at 25 mg/kg, iv administered within 6 hrs post onset of sustained fever as 30 mins infusion for 5 days (reference value: 7.1 10^7CFU/g); format: functional, organism-based; conditions: CO92
[7] = tested on: Yersinia pestis; experiment: Antibacterial activity against Yersinia pestis Colorado 92 infected in African green monkey B6873 model assessed as bacterial burden in kidney at 12.5 mg/kg, iv administered within 6 hrs post onset of sustained fever as 30 mins infusion for 5 days (reference value: 7.1 10^7CFU/g); format: functional, organism-based; conditions: CO92
[8] = tested on: Yersinia pestis; experiment: Antibacterial activity against Yersinia pestis Colorado 92 infected in African green monkey C2083 model assessed as bacterial burden in kidney at 12.5 mg/kg, iv administered within 6 hrs post onset of sustained fever as 30 mins infusion for 5 days (reference value: 7.1 10^7CFU/g); format: functional, CO92
[9] = tested on: Yersinia pestis; experiment: Antibacterial activity against Yersinia pestis Colorado 92 infected in African green monkey B6960 model assessed as bacterial burden in kidney at 6.25 mg/kg, iv administered within 6 hrs post onset of sustained fever as 30 mins infusion for 5 days (reference value: 7.1 10^7CFU/g); format: functional, CO92
[10] = tested on: Yersinia pestis; experiment: Antibacterial activity against Yersinia pestis Colorado 92 infected in African green monkey B6889 model assessed as bacterial burden in heart at 6.25 mg/kg, iv administered within 6 hrs post onset of sustained fever as 30 mins infusion for 5 days (reference value: 2.6 10^7CFU/g); format: functional, CO92
[11] = tested on: Yersinia pestis; experiment: Antibacterial activity against Yersinia pestis Colorado 92 infected in African green monkey B6988 model assessed as bacterial burden in heart at 6.25 mg/kg, iv administered within 6 hrs post onset of sustained fever as 30 mins infusion for 5 days (reference value: 2.6 10^7CFU/g); format: functional, CO92
[12] = tested on: Yersinia pestis; experiment: Antibacterial activity against Yersinia pestis Colorado 92 infected in African green monkey B6127 model assessed as bacterial burden in brain at 25 mg/kg, iv administered within 6 hrs post onset of sustained fever as 30 mins infusion for 10 days (reference value: 1.9 10^6CFU/g); format: functional, CO92
[13] = tested on: Yersinia pestis; experiment: Antibacterial activity against Yersinia pestis Colorado 92 infected in African green monkey B6889 model assessed as bacterial burden in brain at 6.25 mg/kg, iv administered within 6 hrs post onset of sustained fever as 30 mins infusion for 5 days (reference value: 1.9 10^6CFU/g); format: functional, CO92
[14] = tested on: Yersinia pestis; experiment: Antibacterial activity against Yersinia pestis Colorado 92 infected in African green monkey B6127 model assessed as bacterial burden in blood at 25 mg/kg, iv administered within 6 hrs post onset of sustained fever as 30 mins infusion for 10 days (reference value: 1.2 10^7CFU/ml); format: functional, organism-based; conditions: CO92
[15] = tested on: African green monkey; experiment: Toxicity in African green monkey B6291 model infected with Yersinia pestis Colorado 92 assessed as blood urea nitrogen level at 25 mg/kg, iv administered within 6 hrs post onset of sustained fever as 30 mins infusion for 10 days (reference value: 24 mg/dl); format: organism-based; conditions: chlorocebus sabaeus, in vivo
[16] = tested on: African green monkey; experiment: Toxicity in African green monkey B6140 model infected with Yersinia pestis Colorado 92 assessed as blood urea nitrogen level at 25 mg/kg, iv administered within 6 hrs post onset of sustained fever as 30 mins infusion for 10 days (reference value: 24 mg/dl); format: organism-based; conditions: chlorocebus sabaeus, in vivo
[17] = tested on: African green monkey; experiment: Toxicity in African green monkey 7643 model infected with Yersinia pestis Colorado 92 assessed as blood urea nitrogen level at 25 mg/kg, iv administered within 6 hrs post onset of sustained fever as 30 mins infusion for 10 days (reference value: 16 mg/dl); format: organism-based; conditions: chlorocebus sabaeus, in vivo
[18] = tested on: African green monkey; experiment: Toxicity in African green monkey 8067 model infected with Yersinia pestis Colorado 92 assessed as serum gamma glutamyl-transferase level at 25 mg/kg, iv administered within 6 hrs post onset of sustained fever as 30 mins infusion for 10 days (reference value: 40 IU/L); format: organism-based; conditions: chlorocebus sabaeus, in vivo
[19] = tested on: African green monkey; experiment: Toxicity in African green monkey 7643 model infected with Yersinia pestis Colorado 92 assessed as serum gamma glutamyl-transferase level at 25 mg/kg, iv administered within 6 hrs post onset of sustained fever as 30 mins infusion for 10 days (reference value: 44 IU/L); format: organism-based; conditions: chlorocebus sabaeus, in vivo
[20] = tested on: African green monkey; experiment: Toxicity in African green monkey 7929 model infected with Yersinia pestis Colorado 92 assessed as serum alanine aminotransferase level at 25 mg/kg, iv administered within 6 hrs post onset of sustained fever as 30 mins infusion for 10 days (reference value: 63 IU/L); format: organism-based; conditions: chlorocebus sabaeus, in vivo
[21] = tested on: African green monkey; experiment: Toxicity in African green monkey 8067 model infected with Yersinia pestis Colorado 92 assessed as serum alanine aminotransferase level at 25 mg/kg, iv administered within 6 hrs post onset of sustained fever as 30 mins infusion for 10 days (reference value: 45 IU/L); format: organism-based; conditions: chlorocebus sabaeus, in vivo
[22] = tested on: African green monkey; experiment: Toxicity in African green monkey B6140 model infected with Yersinia pestis Colorado 92 assessed as serum lactate dehydrogenase level at 25 mg/kg, iv administered within 6 hrs post onset of sustained fever as 30 mins infusion for 10 days (reference value: 290 IU/L); format: organism-based; conditions: chlorocebus sabaeus, in vivo
[23] = tested on: African green monkey; experiment: Toxicity in African green monkey 7929 model infected with Yersinia pestis Colorado 92 assessed as serum lactate dehydrogenase level at 25 mg/kg, iv administered within 6 hrs post onset of sustained fever as 30 mins infusion for 10 days (reference value: 653 IU/L); format: organism-based; conditions: chlorocebus sabaeus, in vivo
[24] = tested on: African green monkey; experiment: Toxicity in African green monkey 7337 model infected with Yersinia pestis Colorado 92 assessed as serum lactate dehydrogenase level at 25 mg/kg, iv administered within 6 hrs post onset of sustained fever as 30 mins infusion for 10 days (reference value: 310 IU/L); format: organism-based; conditions: chlorocebus sabaeus, in vivo
[25] = Toxicity in African green monkey 7929 model infected with Yersinia pestis Colorado 92 assessed as total white blood cell count at 25 mg/kg, iv administered within 6 hrs post onset of sustained fever as 30 mins infusion for 10 days (reference value: 10.9 10^3/microL); format: organism-based; conditions: chlorocebus aethiops, in vivo

CN[C@@H]1[C@@H](O)[C@@H](O[C@@H]2[C@@H](O)[C@H](O[C@H]3OC(CNCCO)=CC[C@H]3N)[C@@H](N)C[C@H]2NC(=O)[C@@H](O)CCN)OC[C@]1(C)O [PLAZOMICIN]
Vd [1]: 0.33 L/kg | Activity [2]: 2.2 ×10⁹ CFU/g | Activity [3]: 95 CFU/g | Activity [4]: 2.2 ×10⁷ CFU/g | Activity [5]: 1.3 ×10⁶ CFU/g | Activity [6]: Below limit of detection | Activity [7]: Below limit of detection | Activity [8]: 3.1 ×10⁶ CFU/g | Activity [9]: 72 CFU/g | Activity [10]: 1 ×10⁶ CFU/g | Activity [11]: 4.5 ×10⁶ CFU/g | Activity [12]: 39 CFU/g | Activity [13]: 80 CFU/g | Activity [14]: Below limit of detection | Activity [15]: 21 mg/dL | Activity [16]: 27 mg/dL | Activity [17]: 19 mg/dL | Activity [18]: 26 IU/L | Activity [19]: 35 IU/L | Activity [20]: 41 IU/L | Activity [21]: 50 IU/L | Activity [22]: 379 IU/L | Activity [23]: 496 IU/L | Activity [24]: 469 IU/L | Activity [25]: 8.5 ×10³ /uL
